According to US20220331303A1, “USE OF AN OREXIN 2 RECEPTOR AGONIST FOR THE TREATMENT OF EXCESSIVE SLEEPINESS” (Takeda Pharmaceutical Company Limited, priority 2019, published 2022):
“Also recorded” adds a separate entry of the source.

Experiments:
[1] = tested on: sleep-deprived healthy volunteers; assay: Karolinska Sleepiness Scale (KSS) in sleep-deprived healthy volunteers; type: in vivo, human; conditions: for KSS Min / KSS Max / KSS Mean (SD) / KSS Median: Compound A 112 mg
Procedure: (§1) During the day before dosing on Day 1, participants were administered the KSS at scheduled timepoints. A practice MWT session was performed on Day 1 treatment period 1 (only once during the entire study) to familiarize subjects with the procedures. Study drug was administered in the clinic in the evening on Day 1 of each treatment period. Subjects underwent the MWT and KSS at specified timepoints after the start of the infusion. Subjects were required to stay awake between the MWT tests. Following completion of the IV infusion on Day 2, subjects underwent an additional MWT test. When the final MWT test and cognitive testing were completed, subjects were allowed to sleep (recovery sleep) for approximately 6 hours. PSG recording was collected during this time. Subjects were discharged from the unit after completion on Day 2 with continuing actigraphy upon discharge (to begin on Day −6 before the next treatment period). The interval between each subsequent treatment period was at least 7 days to ensure that the subject's circadian rhythm had returned to a normal cycle. Subject's vital signs, including BP, were monitored during the dosing and testing period. Blood samples for determination of Compound A plasma concentrations were collected at specified timepoints on Days 1 and 2 of each treatment period. Subjects completed the Columbia-Suicide Severity Rating Scale (C-SSRS) during screening, before study drug administration, and before discharge on Day 2 of each treatment period.
Secondary endpoints: • PK parameters calculated from plasma concentrations of Compound A. • Scores for sleepiness on the Karolinska Sleepiness Scale (KSS).
The secondary efficacy endpoint was sleepiness/alertness as assessed by KSS at 14, 10, 6, and 2 hours predose (approximately between 7:45 AM to 7:45 PM); 2, 2.75, 4.75, 6.75, and 8.75 hours post infusion start (approximately between mid-night to 7 AM in the morning); and at 1.75 hours post infusion end. A higher value indicates more sleepiness, a lower value indicates more alertness. Prior to infusion, there were no statistically significant differences at any time point of observation in KSS score for Compound A 44 and 112 mg treatments when compared to placebo. […] On the average, for modafinil and Compound A 44 and 112 mg, there were about 1.6 to 3.7 points increase in the KSS postdose/the infusion start, relative to that prior to dosing during the daytime. However, for placebo, the increase in the average KSS is 4.9.

[2] = tested on: sleep-deprived healthy volunteers; assay: Safety/tolerability of a single dose in sleep-deprived healthy adults; type: in vivo, human
Procedure: as §1
Safety endpoints: adverse events (AEs), physical examinations, vital signs, 12-lead electrocardiograms (ECGs), clinical laboratory evaluations (hematology, blood chemistry, and urinalysis), drug-liking visual analogue scale, and Profile of Mood States.

[3] = HD: Compound A 112 mg, 1.75 HOURS POST INFUSION END
[4] = HD: Compound A 112 mg, 2 HOURS PREDOSE
[5] = HD: Compound A 112 mg, 2.75 HOURS POST INFUSION START
[6] = HD: Compound A 112 mg, 4.75 HOURS POST INFUSION START
[7] = HD: Compound A 112 mg, 6 HOURS PREDOSE
[8] = HD: Compound A 112 mg, 6.75 HOURS POST INFUSION START
[9] = HD: Compound A 112 mg, 8.75 HOURS POST INFUSION START
[10] = HD: Compound A 112 mg, 10 HOURS PREDOSE
[11] = HD: Compound A 112 mg, 14 HOURS PREDOSE
[12] = HD: Compound A 112 mg, DELTA: AVERAGE POST - AVERAGE PRIOR
[13] = LD: Compound A 44 mg, 1.75 HOURS POST INFUSION END
[14] = LD: Compound A 44 mg, 2 HOURS PREDOSE
[15] = LD: Compound A 44 mg, 2.75 HOURS POST INFUSION START
[16] = LD: Compound A 44 mg, 4.75 HOURS POST INFUSION START
[17] = LD: Compound A 44 mg, 6 HOURS PREDOSE
[18] = LD: Compound A 44 mg, 6.75 HOURS POST INFUSION START
[19] = LD: Compound A 44 mg, 8.75 HOURS POST INFUSION START
[20] = LD: Compound A 44 mg, 10 HOURS PREDOSE
[21] = LD: Compound A 44 mg, 14 HOURS PREDOSE
[22] = LD: Compound A 44 mg, DELTA: AVERAGE POST - AVERAGE PRIOR

Compound: COC(=O)N1CCC[C@H](NS(C)(=O)=O)[C@@H]1CO[C@H]1CC[C@@H](c2ccccc2)CC1 [Compound A, methyl (2R,3S)-3-((methylsulfonyl)amino)-2-(((cis-4-phenylcyclohexyl)oxy)methyl)piperidine-1-carboxylate]
- KSS Min ([1]; 6.75 HOURS POST INFUSION START): 2
- KSS Max ([1]; 8.75 HOURS POST INFUSION START): 9
- KSS Mean (SD) ([1]; 8.75 HOURS POST INFUSION START): 6.1 (1.95)
- KSS Median ([1]; 8.75 HOURS POST INFUSION START): 6.0
- KSS Min ([1]; 8.75 HOURS POST INFUSION START): 3
- KSS Max ([1]; 10 HOURS PREDOSE): 7
- KSS Mean (SD) ([1]; 10 HOURS PREDOSE): 2.5 (1.47)
- KSS Median ([1]; 10 HOURS PREDOSE): 2.0
- KSS Min ([1]; 10 HOURS PREDOSE): 1
- KSS Max ([1]; 14 HOURS PREDOSE): 7
- KSS Mean (SD) ([1]; 14 HOURS PREDOSE): 3.3 (1.74)
- KSS Median ([1]; 14 HOURS PREDOSE): 3.0
- KSS Min ([1]; 14 HOURS PREDOSE): 1
- KSS Sleepy/Alert LS Mean [1, 3]: 8.01
- KSS Sleepy/Alert LS Mean Difference vs Placebo Estimate [1, 3]: −0.14
- KSS Sleepy/Alert LS Mean [1, 4]: 3.46
- KSS Sleepy/Alert LS Mean Difference vs Placebo Estimate [1, 4]: −0.44
- KSS Sleepy/Alert LS Mean [1, 5]: 3.24
- KSS Sleepy/Alert LS Mean Difference vs Placebo Estimate [1, 5]: −3.61
- KSS Sleepy/Alert LS Mean [1, 6]: 3.85
- KSS Sleepy/Alert LS Mean Difference vs Placebo Estimate [1, 6]: −4.30
- KSS Sleepy/Alert LS Mean [1, 7]: 2.51
- KSS Sleepy/Alert LS Mean Difference vs Placebo Estimate [1, 7]: −0.29
- KSS Sleepy/Alert LS Mean [1, 8]: 5.18
- KSS Sleepy/Alert LS Mean Difference vs Placebo Estimate [1, 8]: −3.32
- KSS Sleepy/Alert LS Mean [1, 9]: 6.07
- KSS Sleepy/Alert LS Mean Difference vs Placebo Estimate [1, 9]: −2.26
- KSS Sleepy/Alert LS Mean [1, 10]: 2.51
- KSS Sleepy/Alert LS Mean Difference vs Placebo Estimate [1, 10]: 0.01
- KSS Sleepy/Alert LS Mean [1, 11]: 3.29
- KSS Sleepy/Alert LS Mean Difference vs Placebo Estimate [1, 11]: 0.24
- KSS Sleepy/Alert LS Mean ([1]; HD: Compound A 112 mg, AVERAGE POST INFUSION START (2.75, 4.75, 6.75 AND 8.75 HOURS)): 4.58
- KSS Sleepy/Alert LS Mean ([1]; HD: Compound A 112 mg, AVERAGE PRIOR TO INFUSION START (14, 10, 6, 2 HOURS PREDOSE)): 2.95
- KSS Sleepy/Alert LS Mean [1, 12]: 1.64
- KSS Sleepy/Alert LS Mean Difference vs Placebo Estimate [1, 12]: −3.26
- KSS Sleepy/Alert LS Mean [1, 13]: 8.46
- KSS Sleepy/Alert LS Mean Difference vs Placebo Estimate [1, 13]: 0.31
- KSS Sleepy/Alert LS Mean [1, 14]: 4.01
- KSS Sleepy/Alert LS Mean Difference vs Placebo Estimate [1, 14]: 0.11
- KSS Sleepy/Alert LS Mean [1, 15]: 4.85
- KSS Sleepy/Alert LS Mean Difference vs Placebo Estimate [1, 15]: −2.00
- KSS Sleepy/Alert LS Mean [1, 16]: 6.46
- KSS Sleepy/Alert LS Mean Difference vs Placebo Estimate [1, 16]: −1.69
- KSS Sleepy/Alert LS Mean [1, 17]: 2.79
- KSS Sleepy/Alert LS Mean Difference vs Placebo Estimate [1, 17]: −0.01
- KSS Sleepy/Alert LS Mean [1, 18]: 7.79
- KSS Sleepy/Alert LS Mean Difference vs Placebo Estimate [1, 18]: −0.71
- KSS Sleepy/Alert LS Mean [1, 19]: 8.07
- KSS Sleepy/Alert LS Mean Difference vs Placebo Estimate [1, 19]: −0.26
- KSS Sleepy/Alert LS Mean [1, 20]: 2.79
- KSS Sleepy/Alert LS Mean Difference vs Placebo Estimate [1, 20]: 0.29
- KSS Sleepy/Alert LS Mean [1, 21]: 2.85
- KSS Sleepy/Alert LS Mean Difference vs Placebo Estimate [1, 21]: −0.20
- KSS Sleepy/Alert LS Mean ([1]; LD: Compound A 44 mg, AVERAGE POST INFUSION START (2.75, 4.75, 6.75 AND 8.75 HOURS)): 6.79
- KSS Sleepy/Alert LS Mean ([1]; LD: Compound A 44 mg, AVERAGE PRIOR TO INFUSION START (14, 10, 6, 2 HOURS PREDOSE)): 3.11
- KSS Sleepy/Alert LS Mean [1, 22]: 3.68
- KSS Sleepy/Alert LS Mean Difference vs Placebo Estimate [1, 22]: −1.22
- Effect on BP and pulse ([2]; Compound A 44 mg): minimal effect
- Drug-related TEAE of liver function test increased, number of subjects ([2]; Compound A 112 mg, mild intensity): 1 subject
- Serious adverse events (SAEs) ([2]; Compound A 44 and 112 mg treatments): no SAEs were observed
- Changes in DBP versus Compound A plasma concentration ([2]; change from time-matched baseline): appeared to increase with increasing concentration
- Tolerability ([2]; single dose 44 mg or 112 mg, slow infusion over 9 hours, healthy volunteers): well-tolerated with no major safety concerns; also recorded: well tolerated overall
